Source: patent US6117886A, “Tetrazole derivatives” (Kowa Co., Ltd., priority 1997, dated 2000)
pIC50, pKd: −log10 of the molar value. Counter-ions that a name gives are not always drawn.

Experiments:
[1] = molecular target: guinea pig ileum, contraction in response to histamine (Cavia porcellus, UniProt P31389); assay: Antihistaminic action, in vitro test on isolated ileum (contraction in response to histamine); settings: 10^-8 to 10^-4 M histamine dose-response curve, 30 min after test compound, 29° C; for Kb: read-out: Anti-histaminic action, pA2 (converted)
[2] = test system: guinea pig ileum, contraction induced with LTD4; assay: Antileukotriene action, in vitro test on isolated ileum (contraction induced with LTD4); settings: contraction induced with 10^-8 M LTD4; 29° C; read-out: Anti-LTD4 action IC50
LTD4 Receptor = molecular target: T1, LTD4 Receptor (Cavia porcellus, UniProt Q2NNR5); assay: LTD4 Receptor Binding Inhibitory Test; parameters: species or system guinea pig
T1 construct: guinea pig lung protein; from tissue; host or cells: guinea pig lung
T1 sequence (Q2NNR5 1-340): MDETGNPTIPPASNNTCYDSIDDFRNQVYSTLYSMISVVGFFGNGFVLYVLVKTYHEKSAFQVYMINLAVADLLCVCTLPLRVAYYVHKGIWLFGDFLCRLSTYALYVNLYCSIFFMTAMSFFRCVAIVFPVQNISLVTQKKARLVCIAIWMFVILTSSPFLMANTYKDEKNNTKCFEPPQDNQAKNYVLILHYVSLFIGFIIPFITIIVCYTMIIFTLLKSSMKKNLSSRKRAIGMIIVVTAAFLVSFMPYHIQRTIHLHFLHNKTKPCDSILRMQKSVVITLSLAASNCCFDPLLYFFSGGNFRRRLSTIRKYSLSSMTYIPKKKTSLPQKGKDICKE
Procedure: Reaction was stopped by addition of ice-cold Tris-HCl/NaCl (10 mM/100 mM, pH 7.5) buffer, and immediately thereafter, the reaction mixture was filtered by use of a Wattman CF/C filter. The filter was washed twice, each time with 20 ml ice-cold buffer. Radioactivity of the residue was measured by use of a liquid scintillation counter. […] In a saturation test, 2 μM leukotriene D4 was used for the measurement of the amount of non-specific binding.

H1 Receptor = molecular target: T2, H1 Receptor (Cavia porcellus, UniProt P31389); assay: H1 Receptor Binding Inhibitory Test; parameters: species or system guinea pig
T2 construct: guinea pig cerebral membrane protein; from tissue; host or cells: guinea pig cerebral membranes
Procedure: Reaction was stopped by addition of ice-cold phosphate buffer, and immediately thereafter, the reaction mixture was filtered by use of a Wattman CF/C filter. The filter was washed twice, each time with 20 ml ice-cold buffer. Radioactivity of the residue was measured by use of a liquid scintillation counter. From the value as obtained when a test compound was not added and values as obtained when the test compound was added at different concentrations, there was determined a dose-response curve representing suppression action of the test compound, from which a 50% inhibitory concentration (IC50) was obtained. Based on the IC50 value and by use of the Cheng-Prusoff equation, a dissociation constant (KD) was calculated (Table 9). In a saturation test, 10^-4 M R(-)-dimetindene was used for the measurement of the amount of non-specific binding.

T2 sequence (P31389 whole entry): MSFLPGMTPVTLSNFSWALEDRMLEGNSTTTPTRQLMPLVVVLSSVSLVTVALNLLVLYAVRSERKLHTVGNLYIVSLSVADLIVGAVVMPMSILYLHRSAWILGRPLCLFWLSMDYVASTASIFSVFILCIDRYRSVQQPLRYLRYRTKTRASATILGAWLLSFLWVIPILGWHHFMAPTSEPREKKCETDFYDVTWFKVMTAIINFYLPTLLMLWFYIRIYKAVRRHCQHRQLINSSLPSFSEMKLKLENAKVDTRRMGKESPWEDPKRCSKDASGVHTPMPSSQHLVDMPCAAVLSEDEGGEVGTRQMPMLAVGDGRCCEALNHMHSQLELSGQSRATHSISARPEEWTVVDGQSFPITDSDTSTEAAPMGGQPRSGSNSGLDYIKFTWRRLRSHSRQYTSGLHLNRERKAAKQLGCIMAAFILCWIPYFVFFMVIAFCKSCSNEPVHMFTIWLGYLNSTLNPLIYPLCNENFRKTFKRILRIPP
guinea pig ileum, contraction in response to histamine, sequence (P31389 whole entry): as above

Kb [1]	pIC50 [2]	Anti-histaminic action, pD'2 [1]	pKd (LTD4 Receptor)	pKd (H1 Receptor)	SMILES
115 nM					COc1ccc2c(c1)cc(-c1nnn(Cc3cccc(OCc4ccc5ccccc5n4)c3)n1)c(=O)n2CCCN1CCN(Cc2ccccn2)CC1 [Example 48, 6-Methoxy-1-{3-[4-(2-pyridylmethyl)-piperazinyl]propyl}-3-{2-[3-(2-quinolylmethoxy)benzyl]tetrazolyl}quinolin-2-one dihydrochloride]
	6.80	5.52			COc1ccc2c(c1)cc(-c1nnn(Cc3cccc(OCc4ccc5ccccc5n4)c3)n1)c(=O)n2C [Example 38, 6-methoxy-1-methyl-3-{2-[3-(2-quinolylmethoxy)benzyl]tetrazolyl}quinolin-2-one]
		5.58			COc1ccc2c(c1)cc(-c1nnn(Cc3cccc(OCc4ccc5ccccc5n4)c3)n1)c(=O)n2CCN(C)C [Example 41, 1-Dimethylaminoethyl-6-methoxy-3-{2-[3-(2-quinolylmethoxy)benzyl]tetrazolyl}quinolin-2-one]
			6.44	4.52	O=c1[nH]c2ccc(O)cc2cc1-c1nnn(Cc2ccc(OCc3ccc4ccccc4n3)cc2)n1 [Example 22, 6-Hydroxy-3-{2-[4-(2-quinolylmethoxy)benzyl]-tetrazolyl}quinolin-2-one]
			6.29	4.64	CC(C)(C)c1ccc2[nH]c(=O)c(-c3nnnn3Cc3cccc(OCc4ccc5ccccc5n4)c3)cc2c1 [Example 18, 6-tert-Butyl-3-{1-[3-(2-quinolylmethoxy)-benzyl]tetrazolyl}quinolin-2-one]
55 nM					CN(C)CCCn1c(=O)c(-c2nnn(Cc3cccc(OCc4ccc5ccccc5n4)c3)n2)cc2cc(O)ccc21 [Example 42, 1-Dimethylaminopropyl-6-hydroxy-3-{2-[3-(2-quinolylmethoxy)benzyl]tetrazolyl}quinolin-2-one]
20 nM					COc1ccc2c(c1)cc(-c1nnn(Cc3cccc(OCc4ccc5ccccc5n4)c3)n1)c(=O)n2CCCCN1CCN(Cc2ccc3ccccc3n2)CC1 [Example 47, 6-Methoxy-1-{4-[4-(2-quinolylmethyl)-piperazinyl]butyl}-3-{2-[3-(2-quinolylmethoxy)benzyl]tetrazolyl}quinolin-2-one dimalate]
174 nM					CN(C)CCn1c(=O)c(-c2nnn(Cc3cccc(C=Cc4ccc5ccccc5n4)c3)n2)cc2cc(O)ccc21 [Example 43, 1-Dimethylaminoethyl-6-hydroxy-3-{2-[3-(2-quinolylethenyl)benzyl]tetrazolyl}quinolin-2-one]
			7.66	4.21	NCC(=O)Oc1ccc2[nH]c(=O)c(-c3nnn(Cc4cccc(OCc5ccc6ccccc6n5)c4)n3)cc2c1 [Example 64, 6-Glycyloxy-3-{2-[3-(2-quinolylmethoxy)-benzyl]tetrazolyl}quinolin-2-one]
			8.23	4.86	COc1ccc2[nH]c(=O)c(-c3nnnn3Cc3ccc(OCc4ccc5ccccc5n4)cc3)cc2c1 [Example 25, 6-Methoxy-3-{1-[4-(2-quinolylmethoxy)benzyl]-tetrazolyl}quinolin-2-one]
	7.05	5.53	6.94	5.53	COc1ccc2[nH]c(=O)c(-c3nnn(Cc4cccc(OCc5ccc6ccccc6n5)c4)n3)cc2c1 [Example 1, 6-methoxy-3-{2-[3-(2-quinolylmethoxy)benzyl]tetrazolyl}quinolin-2-one]
21.9 nM	6.19				COc1ccc2c(c1)cc(-c1nnn(Cc3cccc(OCc4ccc5ccccc5n4)c3)n1)c(=O)n2CCCN1CCN(Cc2ccc3ccccc3n2)CC1 [Example 45, 1-{3-[4-(2-quinolylmethyl)-1-piperazinyl]propyl}-6-methoxy-3-(2-[3-(2-quinolylmethoxy)benzyl]tetrazolyl)quinolin-2-one dihydrochloride]
251 nM					CN(C)CCn1c(=O)c(-c2nnnn2Cc2cccc(OCc3ccc4ccccc4n3)c2)cc2cc(O)ccc21 [Example 40, 1-Dimethylaminoethyl-6-hydroxy-3-{1-[3-(2-quinolylmethoxy)benzyl]tetrazolyl}quinolin-2-one]
			6.84	5.03	Cn1c(COc2cccc(Cn3nnc(-c4cc5ccccc5[nH]c4=O)n3)c2)nc2ccccc21 [Example 8, 3-{2-[3-(N-Methylbenzimidazol-2-ylmethoxy)benzyl]tetrazolyl}quinolin-2-one]
	6.75	5.24	6.75	4.05	O=c1[nH]c2ccccc2cc1-c1nnn(Cc2cccc(OCc3ccc4ccccc4n3)c2)n1 [Example 26, 3-{2-[3-(2-Quinolylmethoxy)benzyl]-tetrazolyl}quinolin-2-one]
912 nM	5.89				CN1CCN(CCCOc2ccc3c(c2)cc(-c2nnn(Cc4cccc(OCc5ccc6ccccc6n5)c4)n2)c(=O)n3C)CC1 [Example 52, 1-methyl-6-[3-(4-metylpiperazinyl)propyl]oxy-3-{2-[3-(2-quinolylmethoxy)benzyl]tetrazolyl}quinolin-2-one trihydrochloride]
			6.49	4.86	Cn1c(COc2cccc(Cn3nnnc3-c3cc4ccccc4[nH]c3=O)c2)nc2ccccc21 [Example 9, 3-{1-[3-(N-Methylbenzimidazol-2-ylmethoxy)benzyl]tetrazolyl}quinolin-2-one]
40.7 nM	5.96		5.09	5.48	CCOCCn1c(COc2ccc(Cn3nnc(-c4cc5cc(OC)ccc5[nH]c4=O)n3)cc2)nc2ccccc21 [Example 6, 3-{2-{4-[N-(2-Ethoxyethyl)benzimidazol-2-ylmethoxy]benzyl}tetrazolyl}-6-methoxyquinolin-2-one]
			6.69	5.02	COc1ccc2[nH]c(=O)c(-c3nnn(Cc4ccc(OCc5ccc6ccccc6n5)cc4)n3)cc2c1 [Example 24, 6-Methoxy-3-{2-[4-(2-quinolylmethoxy)benzyl]-tetrazolyl}quinolin-2-one]
			7.68	4.86	O=c1[nH]c2ccc(O)cc2cc1-c1nnn(Cc2cccc(OCc3ccc4ccccc4n3)c2)n1 [Example 28, 6-Hydroxy-3-{2-[3-(2-quinolylmethoxy)benzyl]-tetrazolyl}quinolin-2-one]
30.2 nM					CN(C)CCn1c(=O)c(-c2nnn(Cc3cccc(OCc4ccc5ccccc5n4)c3)n2)cc2cc(O)ccc21 [Example 39, 1-Dimethylaminoethyl-6-hydroxy-3-{2-[3-(2-quinolylmethoxy)benzyl]tetrazolyl}quinolin-2-one]
			7.87	4.24	O=c1[nH]c2ccc(O)cc2cc1-c1nnnn1Cc1cccc(OCc2ccc3ccccc3n2)c1 [Example 29, 6-Hydroxy-3-{1-[3-(2-quinolylmethoxy)benzyl]-tetrazolyl}quinolin-2-one]
4170 nM	6.60				COc1ccc2[nH]c(=O)c(-c3nnnn3Cc3cccc(OCc4ccc5ccccc5n4)c3)cc2c1 [Example 2, 6-methoxy-3-{1-[3-(2-quinolylmethoxy)benzyl]tetrazolyl}quinolin-2-one]

SMILES	Kb [1]	pIC50 [2]	Anti-histaminic action, pD'2 [1]	pKd (LTD4 Receptor)	pKd (H1 Receptor)
CC(=O)Oc1ccc2[nH]c(=O)c(-c3nnn(Cc4ccc(OCc5ccc6ccccc6n5)cc4)n3)cc2c1 [Example 56, 6-Acetoxy-3-{2-[4-(2-quinolylmethoxy)benzyl]-tetrazolyl}quinolin-2-one]				6.47	4.07
CC(=O)Oc1ccc2[nH]c(=O)c(-c3nnn(Cc4cccc(OCc5ccc6ccccc6n5)c4)n3)cc2c1 [Example 58, 6-Acetoxy-3-{2-[3-(2-quinolylmethoxy)benzyl]-tetrazolyl}quinolin-2-one]				7.42	3.32
